Test results taken from patent US6489469B1, “Method for storing or transporting erythritol solution” (Nikken Chemicals Co., Ltd., priority 1999, dated 2002).

Key:
[1] = test system: Penicillium funiculosum IFO 6345; test: Viable Count of Penicillium funiculosum IFO 6345 in Erythritol Solution; type: cell-based
Experimental: (§1) Erythritol solutions of respective concentrations in the range of from 30 to 60% were prepared. To these were inoculated Staphylococcus aureus IFO 13276, Bacillus subtilis IFO 3134, and Escherichia coli IFO 3972 as bacteria, Candida albicans IFO 1549 and Saccharomyces cerevisiae ATCC 9763 as yeasts, Aspergillus niger IFO 6342, Aspergillus flavus IFO 6343, and Penicillium funiculosum IFO 6345 as fungi, respectively, in a population (concentration) of 10,000 cells/mL or more. After the inoculation, the solutions were stored at 30, 37, 45, 50, or 60° C., respectively, for 56 days and the number of viable cell was determined daily. The determination of the number of viable cell was performed by a method of coating 0.1 mL of appropriately diluted sample cultivation on an agar plate and cultivating and counting the number of viable cell (the number of colony) that grew after the cultivation.

[2] = test system: Bacillus subtilis IFO 3134; test: Viable Count of Bacillus subtilis IFO 3134 in Erythritol Solution; type: cell-based
Experimental: as §1

OC[C@@H](O)[C@@H](O)CO [Erythritol Solution, erythritol]
The Number of Viable Cell ([1]; 37° C., 30% w/w, Day 0): ≥ 10000 cells/mL | The Number of Viable Cell ([1]; 37° C., 30% w/w, Day 3): ≥ 10000 cells/mL | The Number of Viable Cell ([1]; 37° C., 30% w/w, Day 7): ≥ 10000 cells/mL | The Number of Viable Cell ([1]; 37° C., 30% w/w, Day 14): ≥ 10000 cells/mL | The Number of Viable Cell ([1]; 37° C., 30% w/w, Day 28): ≥ 10000 cells/mL | The Number of Viable Cell ([1]; 37° C., 30% w/w, Day 56): ≥ 10000 cells/mL | The Number of Viable Cell ([1]; 37° C., 40% w/w, Day 0): ≥ 10000 cells/mL | The Number of Viable Cell ([1]; 37° C., 40% w/w, Day 3): ≥ 10000 cells/mL | The Number of Viable Cell ([1]; 37° C., 40% w/w, Day 7): ≥ 10000 cells/mL | The Number of Viable Cell ([1]; 37° C., 40% w/w, Day 14): ≥ 10000 cells/mL | The Number of Viable Cell ([1]; 37° C., 40% w/w, Day 28): ≥ 10000 cells/mL | The Number of Viable Cell ([1]; 37° C., 40% w/w, Day 56): ≥ 10000 cells/mL | The Number of Viable Cell ([1]; 45° C., 30% w/w, Day 0): ≥ 10000 cells/mL | The Number of Viable Cell ([1]; 45° C., 30% w/w, Day 3): 370 cells/mL | The Number of Viable Cell ([1]; 45° C., 30% w/w, Day 7): 0 cells/mL | The Number of Viable Cell ([1]; 45° C., 30% w/w, Day 14): 0 cells/mL | The Number of Viable Cell ([1]; 45° C., 30% w/w, Day 28): 0 cells/mL | The Number of Viable Cell ([1]; 45° C., 30% w/w, Day 56): 0 cells/mL | The Number of Viable Cell ([1]; 45° C., 40% w/w, Day 0): ≥ 10000 cells/mL | The Number of Viable Cell ([1]; 45° C., 40% w/w, Day 3): 750 cells/mL | The Number of Viable Cell ([1]; 45° C., 40% w/w, Day 7): 0 cells/mL | The Number of Viable Cell ([1]; 45° C., 40% w/w, Day 14): 0 cells/mL | The Number of Viable Cell ([1]; 45° C., 40% w/w, Day 28): 0 cells/mL | The Number of Viable Cell ([1]; 45° C., 40% w/w, Day 56): 0 cells/mL | The Number of Viable Cell ([1]; 45° C., 50% w/w, Day 0): ≥ 10000 cells/mL | The Number of Viable Cell ([1]; 45° C., 50% w/w, Day 3): 1260 cells/mL | The Number of Viable Cell ([1]; 45° C., 50% w/w, Day 7): 0 cells/mL | The Number of Viable Cell ([1]; 45° C., 50% w/w, Day 14): 0 cells/mL | The Number of Viable Cell ([1]; 45° C., 50% w/w, Day 28): 0 cells/mL | The Number of Viable Cell ([1]; 45° C., 50% w/w, Day 56): 0 cells/mL | The Number of Viable Cell ([1]; 50° C., 30% w/w, Day 0): ≥ 10000 cells/mL | The Number of Viable Cell ([1]; 50° C., 30% w/w, Day 3): 0 cells/mL | The Number of Viable Cell ([1]; 50° C., 30% w/w, Day 7): 0 cells/mL | The Number of Viable Cell ([1]; 50° C., 30% w/w, Day 14): 0 cells/mL | The Number of Viable Cell ([1]; 50° C., 30% w/w, Day 28): 0 cells/mL | The Number of Viable Cell ([1]; 50° C., 30% w/w, Day 56): 0 cells/mL | The Number of Viable Cell ([1]; 50° C., 40% w/w, Day 0): ≥ 10000 cells/mL | The Number of Viable Cell ([1]; 50° C., 40% w/w, Day 3): 0 cells/mL | The Number of Viable Cell ([1]; 50° C., 40% w/w, Day 7): 0 cells/mL | The Number of Viable Cell ([1]; 50° C., 40% w/w, Day 14): 0 cells/mL | The Number of Viable Cell ([1]; 50° C., 40% w/w, Day 28): 0 cells/mL | The Number of Viable Cell ([1]; 50° C., 40% w/w, Day 56): 0 cells/mL | The Number of Viable Cell ([1]; 50° C., 50% w/w, Day 0): ≥ 10000 cells/mL | The Number of Viable Cell ([1]; 50° C., 50% w/w, Day 3): 0 cells/mL | The Number of Viable Cell ([1]; 50° C., 50% w/w, Day 7): 0 cells/mL | The Number of Viable Cell ([1]; 50° C., 50% w/w, Day 14): 0 cells/mL | The Number of Viable Cell ([1]; 50° C., 50% w/w, Day 28): 0 cells/mL | The Number of Viable Cell ([1]; 50° C., 50% w/w, Day 56): 0 cells/mL | growth of the microbes ([1]; temperature of 50° C. or more): prevented from growing | time after which microbes died ([1]; temperature of 50° C. or more): 3 days | The Number of Viable Cell ([2]; 30° C., 30% w/w, Day 0): 10000 or more cells/mL | The Number of Viable Cell ([2]; 30° C., 30% w/w, Day 3): 2980 cells/mL | The Number of Viable Cell ([2]; 30° C., 30% w/w, Day 7): 440 cells/mL | The Number of Viable Cell ([2]; 30° C., 30% w/w, Day 14): 110 cells/mL | The Number of Viable Cell ([2]; 30° C., 30% w/w, Day 28): 750 cells/mL | The Number of Viable Cell ([2]; 30° C., 30% w/w, Day 56): 0 cells/mL | The Number of Viable Cell ([2]; 30° C., 40% w/w, Day 0): 10000 or more cells/mL | The Number of Viable Cell ([2]; 30° C., 40% w/w, Day 3): 300 cells/mL | The Number of Viable Cell ([2]; 30° C., 40% w/w, Day 7): 0 cells/mL | The Number of Viable Cell ([2]; 30° C., 40% w/w, Day 14): 20 cells/mL | The Number of Viable Cell ([2]; 30° C., 40% w/w, Day 28): 0 cells/mL | The Number of Viable Cell ([2]; 30° C., 40% w/w, Day 56): 0 cells/mL | The Number of Viable Cell ([2]; 37° C., 30% w/w, Day 0): 10000 or more cells/mL | The Number of Viable Cell ([2]; 37° C., 30% w/w, Day 3): 170 cells/mL | The Number of Viable Cell ([2]; 37° C., 30% w/w, Day 7): 11500 cells/mL | The Number of Viable Cell ([2]; 37° C., 30% w/w, Day 28): 1000 cells/mL | The Number of Viable Cell ([2]; 37° C., 30% w/w, Day 56): 0 cells/mL | The Number of Viable Cell ([2]; 37° C., 40% w/w, Day 0): 10000 or more cells/mL | The Number of Viable Cell ([2]; 37° C., 40% w/w, Day 3): 0 cells/mL | The Number of Viable Cell ([2]; 37° C., 40% w/w, Day 7): 0 cells/mL | The Number of Viable Cell ([2]; 37° C., 40% w/w, Day 14): 0 cells/mL | The Number of Viable Cell ([2]; 37° C., 40% w/w, Day 28): 0 cells/mL | The Number of Viable Cell ([2]; 37° C., 40% w/w, Day 56): 0 cells/mL | The Number of Viable Cell ([2]; 45° C., 30% w/w, Day 0): 10000 or more cells/mL | The Number of Viable Cell ([2]; 45° C., 30% w/w, Day 7): 110 cells/mL | The Number of Viable Cell ([2]; 45° C., 30% w/w, Day 14): 0 cells/mL | The Number of Viable Cell ([2]; 45° C., 30% w/w, Day 28): 0 cells/mL | The Number of Viable Cell ([2]; 45° C., 30% w/w, Day 56): 0 cells/mL | The Number of Viable Cell ([2]; 45° C., 50% w/w, Day 0): 10000 or more cells/mL | The Number of Viable Cell ([2]; 45° C., 50% w/w, Day 3): 30 cells/mL | The Number of Viable Cell ([2]; 45° C., 50% w/w, Day 7): 0 cells/mL | The Number of Viable Cell ([2]; 45° C., 50% w/w, Day 14): 0 cells/mL | The Number of Viable Cell ([2]; 45° C., 50% w/w, Day 28): 0 cells/mL | The Number of Viable Cell ([2]; 45° C., 50% w/w, Day 56): 0 cells/mL | The Number of Viable Cell ([2]; 50° C., 30% w/w, Day 0): 10000 or more cells/mL | The Number of Viable Cell ([2]; 50° C., 30% w/w, Day 3): 0 cells/mL | The Number of Viable Cell ([2]; 50° C., 30% w/w, Day 7): 0 cells/mL | The Number of Viable Cell ([2]; 50° C., 30% w/w, Day 14): 0 cells/mL | The Number of Viable Cell ([2]; 50° C., 30% w/w, Day 28): 0 cells/mL | The Number of Viable Cell ([2]; 50° C., 30% w/w, Day 56): 0 cells/mL | The Number of Viable Cell ([2]; 50° C., 40% w/w, Day 0): 10000 or more cells/mL | The Number of Viable Cell ([2]; 50° C., 40% w/w, Day 3): 0 cells/mL | The Number of Viable Cell ([2]; 50° C., 40% w/w, Day 7): 0 cells/mL | The Number of Viable Cell ([2]; 50° C., 40% w/w, Day 14): 0 cells/mL | The Number of Viable Cell ([2]; 50° C., 40% w/w, Day 28): 0 cells/mL | The Number of Viable Cell ([2]; 50° C., 40% w/w, Day 56): 0 cells/mL | The Number of Viable Cell ([2]; 50° C., 50% w/w, Day 0): 10000 or more cells/mL | The Number of Viable Cell ([2]; 50° C., 50% w/w, Day 3): 0 cells/mL | The Number of Viable Cell ([2]; 50° C., 50% w/w, Day 7): 0 cells/mL | The Number of Viable Cell ([2]; 50° C., 50% w/w, Day 14): 0 cells/mL | The Number of Viable Cell ([2]; 50° C., 50% w/w, Day 28): 0 cells/mL | The Number of Viable Cell ([2]; 50° C., 50% w/w, Day 56): 0 cells/mL | growth of the microbes ([2]; temperature of 50° C. or more): prevented from growing | time after which microbes died ([2]; temperature of 50° C. or more): 3 days
